A value given as a limit tells only on which side of the number the result lay.

This note sets out measurements from US7981903B2, “2-[2-{phenylamino}-1H-pyrrolo[2,3-D]pyrimidin-4-yl)amino] benzamide derivatives as IGF-1R inhibitors for the treatment of cancer” (GlaxoSmithKline LLC, priority 2007, dated 2011).

The target in one test is ALK (Homo sapiens, UniProt Q9UM73). The experiment in a line: ALK enzyme assay (HTRF). The class given is biochemical. The note with it: 0.25 nM ALK, 15.0 μM ATP, values given as pIC50 category. The method, boiled down: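 Isolated ALK phosphorylates a biotinylated tyrosine peptide, 120 min at 20° C; anti-phosphotyrosine Eu-cryptate/streptavidin-XL665 HTRF read after 60 min with EDTA-containing detection mix.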
ALK, sequence (Q9UM73 19-1620): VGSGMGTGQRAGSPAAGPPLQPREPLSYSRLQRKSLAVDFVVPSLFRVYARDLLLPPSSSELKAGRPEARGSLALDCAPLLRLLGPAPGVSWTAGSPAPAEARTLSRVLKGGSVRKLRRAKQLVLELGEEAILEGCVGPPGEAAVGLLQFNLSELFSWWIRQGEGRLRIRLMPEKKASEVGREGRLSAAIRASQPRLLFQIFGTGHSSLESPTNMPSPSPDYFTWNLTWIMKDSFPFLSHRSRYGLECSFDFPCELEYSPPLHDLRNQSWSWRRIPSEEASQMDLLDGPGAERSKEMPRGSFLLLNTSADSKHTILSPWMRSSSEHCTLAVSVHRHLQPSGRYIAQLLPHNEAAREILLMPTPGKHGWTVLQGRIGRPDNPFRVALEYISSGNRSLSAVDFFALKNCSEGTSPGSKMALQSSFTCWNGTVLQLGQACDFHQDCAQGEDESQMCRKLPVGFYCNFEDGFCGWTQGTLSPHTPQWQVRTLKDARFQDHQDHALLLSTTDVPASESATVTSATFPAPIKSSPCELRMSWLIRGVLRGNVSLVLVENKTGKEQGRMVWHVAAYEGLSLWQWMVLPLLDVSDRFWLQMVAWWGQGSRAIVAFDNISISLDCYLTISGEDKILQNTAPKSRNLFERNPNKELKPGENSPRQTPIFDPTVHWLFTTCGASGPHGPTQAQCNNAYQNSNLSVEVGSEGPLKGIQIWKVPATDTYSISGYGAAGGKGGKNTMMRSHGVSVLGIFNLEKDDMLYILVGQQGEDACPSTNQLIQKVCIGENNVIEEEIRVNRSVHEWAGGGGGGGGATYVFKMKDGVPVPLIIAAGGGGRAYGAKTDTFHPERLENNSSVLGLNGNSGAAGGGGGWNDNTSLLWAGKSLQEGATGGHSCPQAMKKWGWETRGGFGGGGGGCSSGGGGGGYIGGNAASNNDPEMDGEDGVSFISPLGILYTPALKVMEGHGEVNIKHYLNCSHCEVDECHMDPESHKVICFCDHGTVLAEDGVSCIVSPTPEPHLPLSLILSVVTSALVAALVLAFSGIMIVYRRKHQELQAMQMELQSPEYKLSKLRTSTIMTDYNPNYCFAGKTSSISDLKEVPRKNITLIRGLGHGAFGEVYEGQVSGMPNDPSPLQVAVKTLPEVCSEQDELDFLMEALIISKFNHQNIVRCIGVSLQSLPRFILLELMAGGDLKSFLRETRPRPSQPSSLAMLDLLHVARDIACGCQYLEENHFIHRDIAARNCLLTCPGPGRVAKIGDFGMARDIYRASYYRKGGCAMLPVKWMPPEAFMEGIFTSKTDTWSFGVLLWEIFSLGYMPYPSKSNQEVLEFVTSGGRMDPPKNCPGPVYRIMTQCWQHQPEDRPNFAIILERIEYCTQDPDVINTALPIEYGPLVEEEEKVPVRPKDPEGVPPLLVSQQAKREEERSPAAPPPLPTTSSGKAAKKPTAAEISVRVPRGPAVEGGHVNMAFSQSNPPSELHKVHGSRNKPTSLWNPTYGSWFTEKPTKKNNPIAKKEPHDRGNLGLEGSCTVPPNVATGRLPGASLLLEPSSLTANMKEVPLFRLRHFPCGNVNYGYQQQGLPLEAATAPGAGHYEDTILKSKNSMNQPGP

A further test concerns the target T1, human IR (hIR) (Homo sapiens, UniProt P06213).
T1 construct: containing amino acid residues 979-1382 of human IR; made in house; host or cells: Sf9 cells (baculovirus), same process as hIGF1R
Nature of the test: TR-FRET kinase assay of purified hIR. To be noted: activated hIR 0.5 nM, 10 μM ATP, values given as pIC50 category. The class given is biochemical.

Test [1] deals with T2, NIH-3T3 cells overexpressing human IGF-1R (Homo sapiens, UniProt P08069).
T2 construct: expressed in transfected cells; host or cells: NIH-3T3 (mouse fibroblasts)
T2 sequence (P08069 31-1367): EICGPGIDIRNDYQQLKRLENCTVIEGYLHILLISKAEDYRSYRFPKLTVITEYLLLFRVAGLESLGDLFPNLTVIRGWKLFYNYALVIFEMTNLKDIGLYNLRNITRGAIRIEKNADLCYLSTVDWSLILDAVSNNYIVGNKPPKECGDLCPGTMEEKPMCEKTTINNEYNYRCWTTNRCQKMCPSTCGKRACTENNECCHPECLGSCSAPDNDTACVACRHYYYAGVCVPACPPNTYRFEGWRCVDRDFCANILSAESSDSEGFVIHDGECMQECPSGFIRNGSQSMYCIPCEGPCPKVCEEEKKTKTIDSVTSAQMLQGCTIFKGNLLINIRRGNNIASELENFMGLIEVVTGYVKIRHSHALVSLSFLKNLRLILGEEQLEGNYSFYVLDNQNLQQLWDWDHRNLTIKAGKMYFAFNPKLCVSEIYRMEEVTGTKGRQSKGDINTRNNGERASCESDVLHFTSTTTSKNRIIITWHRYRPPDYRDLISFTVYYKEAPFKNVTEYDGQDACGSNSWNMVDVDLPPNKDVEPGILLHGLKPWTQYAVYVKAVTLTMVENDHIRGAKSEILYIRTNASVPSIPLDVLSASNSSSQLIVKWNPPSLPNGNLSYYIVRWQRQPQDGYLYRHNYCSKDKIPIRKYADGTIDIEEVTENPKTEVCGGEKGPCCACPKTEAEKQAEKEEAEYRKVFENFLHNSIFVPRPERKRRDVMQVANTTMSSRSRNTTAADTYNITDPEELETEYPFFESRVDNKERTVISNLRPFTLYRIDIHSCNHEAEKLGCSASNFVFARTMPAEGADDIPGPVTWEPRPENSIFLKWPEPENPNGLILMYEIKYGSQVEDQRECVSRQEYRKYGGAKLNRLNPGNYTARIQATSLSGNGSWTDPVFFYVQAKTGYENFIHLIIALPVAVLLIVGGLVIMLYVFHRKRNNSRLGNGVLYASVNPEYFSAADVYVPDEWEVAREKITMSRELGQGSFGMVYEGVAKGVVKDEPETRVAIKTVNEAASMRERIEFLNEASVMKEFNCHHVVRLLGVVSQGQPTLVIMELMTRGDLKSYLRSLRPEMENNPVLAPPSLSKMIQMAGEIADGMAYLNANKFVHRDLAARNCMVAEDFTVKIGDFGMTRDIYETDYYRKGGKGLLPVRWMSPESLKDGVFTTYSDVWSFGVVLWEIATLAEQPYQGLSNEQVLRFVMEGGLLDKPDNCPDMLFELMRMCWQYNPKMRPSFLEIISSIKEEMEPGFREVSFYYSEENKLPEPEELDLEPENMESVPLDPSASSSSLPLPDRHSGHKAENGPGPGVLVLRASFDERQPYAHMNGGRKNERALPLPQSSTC
Nature of the test: IGF-1R cellular autophosphorylation (DELFIA). Format: cell-based. The essentials: (§1)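 Receptor autophosphorylation measured by DELFIA, capturing IGF-1R or IRβ and detecting with europium anti-pTyr, reported as percent of IGF-1- or insulin-stimulated signal. Compounds (30 uM to 1.5 nM) added 2 h before ligand, then 15 min stimulation (IGF-1 30 ng/ml or insulin 3 ug/ml).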

Test [2] concerns the target T3, NIH-3T3 cells overexpressing human IR (Homo sapiens, UniProt P06213).
T3 construct: expressed in transfected cells; host or cells: NIH-3T3 (mouse fibroblasts)
The experiment in a line: IR cellular autophosphorylation (DELFIA). The note with it: 2 h compound, insulin 3 ug/ml for 15 minutes, IC50 category. The class given is cell-based. The method, boiled down:
as §1

T1 sequence (P06213 979-1382): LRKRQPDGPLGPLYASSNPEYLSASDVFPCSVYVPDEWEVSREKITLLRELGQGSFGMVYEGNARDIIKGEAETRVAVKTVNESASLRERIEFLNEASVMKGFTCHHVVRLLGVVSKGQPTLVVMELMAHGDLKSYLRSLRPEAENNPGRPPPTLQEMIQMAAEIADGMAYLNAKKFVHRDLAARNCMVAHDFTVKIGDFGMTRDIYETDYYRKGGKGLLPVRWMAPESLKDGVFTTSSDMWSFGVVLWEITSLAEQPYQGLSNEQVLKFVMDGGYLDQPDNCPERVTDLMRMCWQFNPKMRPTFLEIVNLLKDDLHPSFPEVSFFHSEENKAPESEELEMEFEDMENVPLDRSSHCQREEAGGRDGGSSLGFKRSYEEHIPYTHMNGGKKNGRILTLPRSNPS
T3 sequence (P06213 28-1382): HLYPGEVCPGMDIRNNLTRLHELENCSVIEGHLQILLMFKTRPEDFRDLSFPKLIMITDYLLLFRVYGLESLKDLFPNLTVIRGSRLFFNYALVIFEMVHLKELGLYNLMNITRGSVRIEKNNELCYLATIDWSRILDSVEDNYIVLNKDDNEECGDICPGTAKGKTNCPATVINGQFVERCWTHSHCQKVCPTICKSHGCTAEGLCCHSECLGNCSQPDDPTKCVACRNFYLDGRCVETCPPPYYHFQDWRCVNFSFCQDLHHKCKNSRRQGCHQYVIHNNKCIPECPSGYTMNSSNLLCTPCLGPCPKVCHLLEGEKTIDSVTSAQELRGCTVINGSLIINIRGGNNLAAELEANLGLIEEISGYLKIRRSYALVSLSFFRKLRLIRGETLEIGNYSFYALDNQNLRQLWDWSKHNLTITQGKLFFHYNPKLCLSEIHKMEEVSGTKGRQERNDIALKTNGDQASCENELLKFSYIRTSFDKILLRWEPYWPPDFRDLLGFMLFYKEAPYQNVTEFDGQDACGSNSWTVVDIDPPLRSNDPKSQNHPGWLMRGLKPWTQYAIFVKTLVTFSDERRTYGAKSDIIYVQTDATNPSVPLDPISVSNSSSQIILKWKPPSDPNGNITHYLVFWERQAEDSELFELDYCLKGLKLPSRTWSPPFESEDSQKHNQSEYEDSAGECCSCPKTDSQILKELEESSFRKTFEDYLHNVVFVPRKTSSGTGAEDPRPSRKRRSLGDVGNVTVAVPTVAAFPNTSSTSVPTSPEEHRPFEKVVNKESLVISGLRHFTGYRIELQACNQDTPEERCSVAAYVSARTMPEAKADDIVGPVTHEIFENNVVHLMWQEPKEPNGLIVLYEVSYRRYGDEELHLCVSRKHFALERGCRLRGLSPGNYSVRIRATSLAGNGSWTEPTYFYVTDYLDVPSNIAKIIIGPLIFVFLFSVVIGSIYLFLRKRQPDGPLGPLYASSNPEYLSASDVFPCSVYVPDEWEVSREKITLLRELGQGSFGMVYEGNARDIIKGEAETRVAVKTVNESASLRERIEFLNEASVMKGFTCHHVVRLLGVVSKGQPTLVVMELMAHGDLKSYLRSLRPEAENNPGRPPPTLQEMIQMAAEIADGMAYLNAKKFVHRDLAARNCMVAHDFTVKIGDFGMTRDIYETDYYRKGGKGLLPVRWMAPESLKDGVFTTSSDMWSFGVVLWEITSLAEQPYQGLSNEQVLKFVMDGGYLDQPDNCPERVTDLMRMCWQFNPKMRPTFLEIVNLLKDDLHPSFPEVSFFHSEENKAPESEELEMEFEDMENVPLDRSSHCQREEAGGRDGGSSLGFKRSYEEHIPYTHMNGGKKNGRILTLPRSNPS

With `COc1cc(N2CCC[C@H](O)C2)ccc1Nc1nc(Nc2cc(F)ccc2C(N)=O)c2cc[nH]c2n1` [Example 74, 4-fluoro-2-[(2-{[4-[(3S)-3-hydroxy-1-piperidinyl]-2-(methyloxy)phenyl]amino}-1H-pyrrolo[2,3-d]pyrimidin-4-yl)amino]benzamide], the IC50 at ALK is 1.26 to 3.98 nM; against human IR (hIR) it was 0.251 to 1 nM; in test [1] it was 100 to 500 nM; in test [2], 100 to 500 nM.

On to `COc1cc(N2CCC(N3CC[C@H](F)C3)CC2)ccc1Nc1nc(Nc2cc(F)ccc2C(N)=O)c2cc[nH]c2n1` [Example 75, 4-fluoro-2-[(2-{[4-{4-[(3S)-3-fluoro-1-pyrrolidinyl]-1-piperidinyl}-2-(methyloxy)phenyl]amino}-1H-pyrrolo[2,3-d]pyrimidin-4-yl)amino]benzamide], for which the concentration for half-maximal inhibition (IC50) is 1.26 to 3.98 nM at ALK, 0.251 to 1 nM against human IR (hIR), less than 100 nM in test [1] and less than 100 nM in test [2].

As for `COc1cc(N2CCC(N3CC[C@@H](F)C3)CC2)ccc1Nc1nc(Nc2cc(F)ccc2C(N)=O)c2cc[nH]c2n1` [Example 76, 4-fluoro-2-[(2-{[4-{4-[(3R)-3-fluoro-1-pyrrolidinyl]-1-piperidinyl}-2-(methyloxy)phenyl]amino}-1H-pyrrolo[2,3-d]pyrimidin-4-yl)amino]benzamide], the IC50 against ALK is 1.26 to 3.98 nM; on human IR (hIR), 0.251 to 1 nM; in test [1], less than 100 nM; in test [2], 100 to 500 nM.

Consider `COc1cc(N2CCC(N3CCCC(F)(F)C3)CC2)ccc1Nc1nc(Nc2cc(F)ccc2C(N)=O)c2cc[nH]c2n1` [Example 77, 2-[(2-{[4-(3,3-difluoro-1,4′-bipiperidin-1′-yl)-2-(methyloxy)phenyl]amino}-1H-pyrrolo[2,3-d]pyrimidin-4-yl)amino]-4-fluorobenzamide], for which the IC50 at ALK was 1.26 to 3.98 nM; against human IR (hIR), 0.251 to 1 nM; in test [1], 100 to 500 nM; in test [2], less than 100 nM.

Regarding `COc1cc(N2CCN(CC3CC3)CC2)ccc1Nc1nc(Nc2cc(F)ccc2C(N)=O)c2cc[nH]c2n1` [Example 81, 2-[(2-{[4-[4-(cyclopropylmethyl)-1-piperazinyl]-2-(methyloxy)phenyl]amino}-1H-pyrrolo[2,3-d]pyrimidin-4-yl)amino]-4-fluorobenzamide], the 50% inhibitory concentration (IC50) at ALK was 0.251 to 1 nM; against human IR (hIR), 1.26 to 3.98 nM; in test [1], less than 100 nM; in test [2], 100 to 500 nM.

Consider `COc1cc(N2CCN(C(C)C)CC2)c(OC)cc1Nc1nc(Nc2cc(F)ccc2C(N)=O)c2cc[nH]c2n1` [Example 82, 4-fluoro-2-[(2-{[4-[4-(1-methylethyl)-1-piperazinyl]-2,5-bis(methyloxy)phenyl]amino}-1H-pyrrolo[2,3-d]pyrimidin-4-yl)amino]benzamide], for which the IC50 against ALK is 1.26 to 3.98 nM; against human IR (hIR), 1.26 to 3.98 nM; in test [1] it was less than 100 nM; in test [2], 100 to 500 nM.

With `COc1cc(N2CCOCC2)ccc1Nc1nc(Nc2cc(F)ccc2C(N)=O)c2cc[nH]c2n1` [Example 83, 4-fluoro-2-[(2-{[2-(methyloxy)-4-(4-morpholinyl)phenyl]amino}-1H-pyrrolo[2,3-d]pyrimidin-4-yl)amino]benzamide], the concentration for half-maximal inhibition (IC50) is 5.01 to 200 nM against ALK, 1.26 to 3.98 nM against human IR (hIR), less than 100 nM in test [1] and less than 100 nM in test [2].

Regarding `CCCN1CCC=C(c2ccc(Nc3nc(Nc4cc(F)ccc4C(=O)N[C@@H](C)CC)c4cc[nH]c4n3)c(OC)c2)C1` [Example 87, 4-fluoro-2-[(2-{[2-(methyloxy)-4-(1-propyl-1,2,5,6-tetrahydro-3-pyridinyl)phenyl]amino}-1H-pyrrolo[2,3-d]pyrimidin-4-yl)amino]-N-[(1S)-1-methylpropyl]benzamide], the IC50 at ALK was 0.251 to 1 nM; on human IR (hIR) it was 1.26 to 3.98 nM; in test [1], more than 500 nM; in test [2] it was more than 500 nM.

On to `COc1cc(N2CCN(C(C)C)CC2)ccc1Nc1nc(Nc2cc(F)cc(OC)c2C(N)=O)c2cc[nH]c2n1` [Example 88], for which the IC50 against ALK was 1.26 to 3.98 nM; on human IR (hIR), 1.26 to 3.98 nM; in test [1], more than 500 nM; in test [2] it was more than 500 nM.

Consider `COc1cc(N2CCN(C(C)C)CC2)ccc1Nc1nc(Nc2cc(Cl)cc(F)c2C(N)=O)c2cc[nH]c2n1` [Example 93, 4-chloro-2-fluoro-6-[(2-{[4-[4-(1-methylethyl)-1-piperazinyl]-2-(methyloxy)phenyl]amino}-1H-pyrrolo[2,3-d]pyrimidin-4-yl)amino]benzamide], for which the IC50 at ALK was 0.251 to 1 nM; against human IR (hIR) it was 1.26 to 3.98 nM; in test [1] it was 100 to 500 nM; in test [2], 100 to 500 nM.

Regarding `COc1cc(N2CCN(C(C)C)CC2)ccc1Nc1nc(Nc2ccc(F)c(F)c2C(N)=O)c2cc[nH]c2n1` [Example 94, 2,3-difluoro-6-[(2-{[4-[4-(1-methylethyl)-1-piperazinyl]-2-(methyloxy)phenyl]amino}-1H-pyrrolo[2,3-d]pyrimidin-4-yl)amino]benzamide], the half-maximal inhibitory concentration (IC50) is 0.251 to 1 nM on ALK, 1.26 to 3.98 nM against human IR (hIR), 100 to 500 nM in test [1] and 100 to 500 nM in test [2].

Take `COc1cc(C2CCN(C(C)C)CC2)ccc1Nc1nc(Nc2cc(F)c(F)cc2C(N)=O)c2cc[nH]c2n1` [Example 97, 4,5-difluoro-2-[(2-{[4-[1-(1-methylethyl)-4-piperidinyl]-2-(methyloxy)phenyl]amino}-1H-pyrrolo[2,3-d]pyrimidin-4-yl)amino]benzamide]: the IC50 against ALK was 0.251 to 1 nM; on human IR (hIR) it was 0.251 to 1 nM; in test [1], less than 100 nM; in test [2], less than 100 nM.

Turning to `CCCN1CCC(c2ccc(Nc3nc(Nc4cc(F)c(F)cc4C(N)=O)c4cc[nH]c4n3)c(OC)c2)CC1` [Example 98, 4,5-difluoro-2-[(2-{[2-(methyloxy)-4-(1-propyl-4-piperidinyl)phenyl]amino}-1H-pyrrolo[2,3-d]pyrimidin-4-yl)amino]benzamide], the IC50 on ALK is 0.251 to 1 nM; on human IR (hIR) it was 0.251 to 1 nM; in test [1] it was less than 100 nM; in test [2], less than 100 nM.

For `COc1cc(N2CCC(N3CCOCC3)CC2)ccc1Nc1nc(Nc2cc(F)c(F)cc2C(N)=O)c2cc[nH]c2n1` [Example 101, 4,5-difluoro-2-{[2-({2-(methyloxy)-4-[4-(4-morpholinyl)-1-piperidinyl]phenyl}amino)-1H-pyrrolo[2,3-d]pyrimidin-4-yl]amino}benzamide], the IC50 on ALK was 0.251 to 1 nM; against human IR (hIR), 0.251 to 1 nM; in test [1] it was less than 100 nM; in test [2], more than 500 nM.

Consider `COc1cc(N2CCN(C(C)=O)CC2)ccc1Nc1nc(Nc2cc(F)c(F)cc2C(N)=O)c2cc[nH]c2n1` [Example 103, 2-[(2-{[4-(4-acetyl-1-piperazinyl)-2-(methyloxy)phenyl]amino}-1H-pyrrolo[2,3-d]pyrimidin-4-yl)amino]-4,5-difluorobenzamide], for which the IC50 was 1.26 to 3.98 nM against ALK, 0.251 to 1 nM at human IR (hIR), less than 100 nM in test [1] and 100 to 500 nM in test [2].

As to `COc1cc(N2CCOC[C@@H]2C)ccc1Nc1nc(Nc2cc(F)c(F)cc2C(N)=O)c2cc[nH]c2n1` [Example 105, 4,5-difluoro-2-[(2-{[4-[(3S)-3-methyl-4-morpholinyl]-2-(methyloxy)phenyl]amino}-1H-pyrrolo[2,3-d]pyrimidin-4-yl)amino]benzamide], the 50% inhibitory concentration (IC50) against ALK was 1.26 to 3.98 nM; against human IR (hIR) it was 0.251 to 1 nM; in test [1] it was less than 100 nM; in test [2], less than 100 nM.

In the case of `COc1cc(N2CCC(N3CCN(S(C)(=O)=O)CC3)CC2)ccc1Nc1nc(Nc2cccc(F)c2C(N)=O)c2cc[nH]c2n1` [Example 113, 2-fluoro-6-({2-[(2-(methyloxy)-4-{4-[4-(methylsulfonyl)-1-piperazinyl]-1-piperidinyl}phenyl)amino]-1H-pyrrolo[2,3-d]pyrimidin-4-yl}amino)benzamide], the concentration for half-maximal inhibition (IC50) was 0.251 to 1 nM at ALK, 0.251 to 1 nM on human IR (hIR), less than 100 nM in test [1] and 100 to 500 nM in test [2].

As for `COc1cc(N2CCC(N3CCN(CCF)CC3)CC2)ccc1Nc1nc(Nc2cccc(F)c2C(N)=O)c2cc[nH]c2n1` [Example 114, 2-fluoro-6-[(2-{[4-{4-[4-(2-fluoroethyl)-1-piperazinyl]-1-piperidinyl}-2-(methyloxy)phenyl]amino}-1H-pyrrolo[2,3-d]pyrimidin-4-yl)amino]benzamide], the IC50 against ALK was 1.26 to 3.98 nM; against human IR (hIR), 1.26 to 3.98 nM; in test [1], less than 100 nM; in test [2], less than 100 nM.

`COc1cc(N2CCC(N3CCN(CCS(C)(=O)=O)CC3)CC2)ccc1Nc1nc(Nc2cccc(F)c2C(N)=O)c2cc[nH]c2n1` [Example 115, 2-fluoro-6-[(2-{[2-(methyloxy)-4-(4-{4-[2-(methylsulfonyl)ethyl]-1-piperazinyl}-1-piperidinyl)phenyl]amino}-1H-pyrrolo[2,3-d]pyrimidin-4-yl)amino]benzamide]: the IC50 at ALK was 0.251 to 1 nM; at human IR (hIR) it was 1.26 to 3.98 nM; in test [1], 100 to 500 nM; in test [2] it was 100 to 500 nM.
